Measurements as given in patent publication US20210047622A1, “METHOD FOR OBTAINING AN ANIMAL MODEL FROM CONDITIONALLY REPROGRAMMED CELLS AND USE OF THE ANIMAL MODEL FOR SCREEING ANTI-TUMOR DRUGS” (Shanghai Lide Biotech Co., Ltd., priority 2018, published 2021).
Where “and” joins values, the source holds several entries; their conditions need not be identical. Equal values may be shown once.

Assays:
Format in all cases: in vivo, human
[1] = test system: MDX095 Mini-PDX models (conditional reprogramming cells from a peritoneal malignant tnesoshelioma patient); test: Anti-tumor efficacy in MDX095 Mini-PDX model; settings: Mini-PDX devices s.c. in nude mice, CTG cell viability day 7, i.p., doses and schedules per Table 3
Source text: Conditional reprogramming cells from […]123 were collected separately. […] The inoculation day was defined as day 0.

[2] = test system: MDX123 Mini-PDX models (conditional reprogramming cells from a colonrectal cancer patient); test: Anti-tumor efficacy in MDX123 Mini-PDX model; settings: Mini-PDX devices s.c. in nude mice, CTG cell viability day 7, i.p., doses and schedules per Table 5
Source text: (§1) The inoculation day was defined as day 0.

[3] = test system: MDX133 Mini-PDX models (conditional reprogramming cells from a gastric cancer patient); test: Anti-tumor efficacy in MDX133 Mini-PDX model; settings: Mini-PDX devices s.c. in nude mice, CTG cell viability day 7, doses, routes and schedules per Table 6
Source text: (§2) Conditional reprogramming cells from MDX133, MDX154, MDX164, MDX165, MDX168, MDX169, MDX174, MDX186, MDX189, MDX203 were collected separately. MDX133 originated from a gastric cancer patient, MDX154 model originated from a gallbladder carcinoma patient, MDX164 model originated from a glioblastoma patient, MDX165 model originated from a glioblastoma patient, MDX168 model originated from a gallbladder carcinoma patient, MDX169 model originated from a lung cancer patient, MDX174 model originated from a lung cancer patient, MDX186 model originated from a pancreatic cancer patient, MDX189 model originated from a esophagus cancer patient, MDX203 model originated from a gallbladder carcinoma patient.
(§3) Wash the tumor tissue sample with buffer solution and remove away non-tumor tissue and necrotic tumor tissue in biosafety cabinet. Cut the tumor into 1˜3 mm3 fragments, suspend pellet with 1× collagenase solution and incubate in 37° C. for 1-2 hours. Collect single cells through 70 uM strainer, count cell numbers to calculate tumor cell concentration (See 9. Tumor cell concentration obtained from surgery and biopsy/needle biopsy). Cultivate the cells with conditional reprogramming medium, after tumor cells proliferation, and harvest the conditional reprogramming cells.
(§4) Suspend tumor tissues obtained from biopsy/needle biopsy in 1× collagenase solution and incubate in 37° C. for 1-2 hours. Collect single cells through 70 uM strainer, count cell numbers to calculate tumor cell concentration (See 9. Tumor cell concentration obtained from surgery and biopsy/needle biopsy). Cultivate the cells with conditional reprogramming medium, after tumor cells proliferation, and harvest the conditional reprogramming cells.
(§5) The cells suspension was filled into Mini-PDX device and the devices were inoculated subcutaneously into both flanks of Nu/Nu-nude mice, to establish the Mini-PDX model. The inoculation day was defined as day 0. Mice were randomized in groups according to the bodyweights and the treatments were initiated at day 0.
(§6) • 6.4.1 Body weight were measured every day, the treatment periods of these studies were 7 days, at the termination, all mice were euthanized and the Mini-PDX devices were removed for CTG (cell viability) assay. Tumor relative proliferation rate (%) is the indication of the anti-tumor activity. • 6.4.2 When VCd7−Vd0>0, Tumor relative proliferation rate (%)=(VTd7−Vd0)/(VCd7−Vd0)×100%; When VCd7−Vd0<0, Tumor relative proliferation rate (%)=VTd7/VCd7×100% (VTd7: the cell viability on day 7 of treatment group; VCd7: the cell viability on day 7 of control group; Vdo: the cell viability on day 0).

[4] = test system: MDX154 Mini-PDX models (conditional reprogramming cells from a gallbladder carcinoma patient); test: Anti-tumor efficacy in MDX154 Mini-PDX model; settings: Mini-PDX devices s.c. in nude mice, CTG cell viability day 7, doses, routes and schedules per Table 7
Source text: as §1

[5] = test system: MDX168 Mini-PDX models (conditional reprogramming cells from a gallbladder carcinoma patient); test: Anti-tumor efficacy in MDX168 Mini-PDX model; settings: Mini-PDX devices s.c. in nude mice, CTG cell viability day 7, doses, routes and schedules per Table 10
Source text: as §2, §3, §4, §5, §6

[6] = test system: MDX186 Mini-PDX models (conditional reprogramming cells from a pancreatic cancer patient); test: Anti-tumor efficacy in MDX186 Mini-PDX model; settings: Mini-PDX devices s.c. in nude mice, CTG cell viability day 7, doses, routes and schedules per Table 13
Source text: as §2, §3, §4, §5, §6

[7] = test system: MDX203 Mini-PDX models (conditional reprogramming cells from a gallbladder carcinoma patient); test: Anti-tumor efficacy in MDX203 Mini-PDX model; settings: Mini-PDX devices s.c. in nude mice, CTG cell viability day 7, doses, routes and schedules per Table 15
Source text: as §2, §3, §4, §5, §6

[8] = test system: MDX164 Mini-PDX models (conditional reprogramming cells from a glioblastoma patient); test: Anti-tumor efficacy in MDX164 Mini-PDX model; settings: Mini-PDX devices s.c. in nude mice, CTG cell viability day 7, 50 mg/kg p.o. qd*5
Source text: as §1

[9] = test system: MDX165 Mini-PDX models (conditional reprogramming cells from a glioblastoma patient); test: Anti-tumor efficacy in MDX165 Mini-PDX model; settings: Mini-PDX devices s.c. in nude mice, CTG cell viability day 7, 50 mg/kg p.o. qd*5
Source text: as §1

Compound | T/C % (Tumor relative proliferation rate) [1] | T/C % (Tumor relative proliferation rate) [2] | T/C % (Tumor relative proliferation rate) [3] | T/C % (Tumor relative proliferation rate) [4] | T/C % (Tumor relative proliferation rate) [5] | T/C % (Tumor relative proliferation rate) [6] | T/C % (Tumor relative proliferation rate) [7] | further results
O=c1[nH]cc(F)c(=O)[nH]1 [5-Fu] | 80% | 75% | 103% | 111% | 146% | 90% | 83% | –
N.N.[Cl][Pt][Cl] [Cisplatin] | 128% | – | – | – | – | – | – | –
COc1cccc2c1C(=O)c1c(O)c3c(c(O)c1C2=O)C[C@@](O)(C(=O)CO)C[C@@H]3O[C@H]1C[C@H](N)[C@@H](O)[C@H](C)O1 [Epirubicin] | 120% | – | – | – | – | – | – | –
COc1cc([C@@H]2c3cc4c(cc3[C@@H](O[C@@H]3O[C@@H]5CO[C@@H](C)O[C@H]5[C@H](O)[C@H]3O)[C@H]3COC(=O)[C@H]23)OCO4)cc(OC)c1O [Etoposide] | 109% | – | – | – | – | – | – | –
Nc1ccn([C@@H]2O[C@H](CO)[C@@H](O)C2(F)F)c(=O)n1 [Gemcitabine] | – | – | – | 100% | 53% | 83% | 77% | –
CCc1c2c(nc3ccc(OC(=O)N4CCC(N5CCCCC5)CC4)cc13)-c1cc3c(c(=O)n1C2)COC(=O)[C@]3(O)CC [Irinotecan] | – | 68% | 72% | 227% | 12% | 5% | 48% | –
O=C1[O][Pt]2([NH][C@@H]3CCCC[C@H]3[NH]2)[O]C1=O [Oxaliplatin] | – | 61% | 89% | 174% | 75% | 47% | 43% | –
CC(=O)O[C@H]1C(=O)[C@@]2(C)[C@H]([C@H](OC(=O)c3ccccc3)[C@]3(O)C[C@H](OC(=O)[C@H](O)[C@@H](NC(=O)c4ccccc4)c4ccccc4)C(C)=C1C3(C)C)[C@]1(OC(C)=O)CO[C@@H]1C[C@@H]2O [Paclitaxel] | 79% | – | 52% | – | – | – | – | –
Cc1nc2ccc(CN(C)c3ccc(C(=O)N[C@@H](CCC(=O)O)C(=O)O)s3)cc2c(=O)[nH]1 [Raltitrexed] | – | 92% | – | – | – | – | – | –
Cn1nnc2c(C(N)=O)ncn2c1=O [Temozolomide] | – | – | – | – | – | – | – | T/C % (Tumor relative proliferation rate) [8]: 102%; T/C % (Tumor relative proliferation rate) [9]: 29%
Bevazulimab: Test drug of the MDX123 groups, printed Bevacizumab in Table 5 | – | 76% and 101% | – | – | – | – | – | –
